Results as given in patent US5236903A, “Polypeptide comprising repeated cell-adhesive core sequences” (Azuma; Ichiro, priority 1988, dated 1993).
Where two headings read alike, the source gives them in different places. Ends that are not written are not given here.

Legend:
[1] = test system: B16-BL6 melanoma cells; assay: Experimental metastasis to lung induced by intravenously injecting B16-BL6 melanoma cells; type: in vivo, C57BL/6 mice; settings: for No. of instances of metastasis to lung mean ± SD: B16-BL6; for Antimetastatic effect on metastasis to lungs (in words): 500 μg mixed with cells, i.v.; for Antimetastatic effect compared with the control group (in words): 1,000 μg mixed with cells
[2] = test system: Lewis lung cancer cells (3 LL); assay: Experimental metastasis to lung induced by injecting Lewis lung cancer cells (3LL); type: in vivo, C57BL/6 mice; settings: for No. of instances of metastasis to lung mean ± SD: 3LL
Description: Namely, portions of 2, 20 and 100 μg of the above compound were each mixed with 3×10^4 Lewis lung cancer cells (3 LL) and administered to a group of C57BL/6 mice in the same manner as the one described in the above (b). Thus the antimetastatic effect of this compound was examined.

[3] = test system: erythrocytes, spleen and thymus cells
[4] = test system: B16-BL6 melanoma cells; assay: Distribution and retention of [125I]IUdR-labeled B16-BL6 melanoma cells in organs
Description: B16-BL6 cells at the logarithmic growth phase were labeled with [^125 I]IUdR. […] The liver, kidneys, spleen and lungs of each animal were removed 30 minutes or 24 hours after the administration and the radioactivity in these organs was determined. Mice which received PBS were used as control animals.

[5] = test system: mouse B16-BL6 melanoma cells; assay: Adhesion of B16-BL6 melanoma cells to substrate coated with polypeptide or fibronectin; type: cell-based; settings: 37° C., 20 minutes; for Adhesiveness adhered cell No./substrate (SD): wells coated with 20 μg/ml polypeptide, 5 μg/ml fibronectin or 1% BSA, 2×10^4 cells
From the text: The adhesiveness to target cells of the compound of the present invention was examined in accordance with a method reported by Saiki et al. […] Namely, a polypeptide of the present invention having a structure of ([…] and a molecular weight of approximately 5,000 prepared in the following Synthetic Example 1 and a comparative polypeptide, ([…], carrying a random sequence of the corresponding amino acids Arg, Gly and Asp and having a molecular weight of approximately 5,000 prepared in the following Synthetic Example 3 were employed. The adhesiveness of each compound was examined by using mouse B16-Bl6 melanoma cells as the target. First, microculture wells were preliminarily coated with 20 μg/ml of the polypeptide to be examined or 5 μg/ml of mouse fibronectin (obtained from Seikagaku Kogyo, Japan) which was used as a positive control. Next 0.05 ml/well of B16-BL6 melamona cells (2×10^4) labeled with a radioactive iodide [^125 I]IUdR was added thereto and the cells were cultured at 37° C. for 20 minutes. […] Subsequently the cells were collected and suspended in a serum-free MEM medium. The cell suspension thus obtained was used in the above examination. The unadsorbed cells in the well were washed away with PBS 4 times. Then the cells adsorbed by the well were dissolved in 0.1 ml of 0.1N NaOH. The number of adsorbed cells was determined by measuring the radioactivity of the dissolved cells.

[6] = test system: platelet aggregation induced by B16-BL6 melanoma cells; settings: 100 μg/ml added to heparinized PRP 7 minutes before the cells; FIGS. 2 and 3
Description: The blood of a C57BL/6 mouse was centrifuged at 160×g for 15 minutes to give platelet rich plasma (PRP). As a control, platelet poor plasma (PPP) obtained by centrifuging the blood at 1,000×g for 10 minutes was employed. […] After preincubation for 5 to 7 minutes, the mixture was added to a suspension of B16-BL6 cells in physiological saline (approximately 10^6 /ml) and stirred at 37° C. at 1,000 rpm. During this period, the aggregation of the platelets was monitored with a dual aggregometer (Model 440; Chrono-Log, USA). […] FIGS. 1 to 3 together show the results.

[7] = test system: B16-BL6 melanoma cells; settings: for Metastasis of the cancer to the lungs (in words): 100 μg on 1st or 7th day single dose or 50 μg on 7th, 10th, 13th, 16th days, random polypeptide 100 μg on 7th day
From the text: Furthermore, the antimetastatic effect of the compound of the present invention on a spontaneous metastasis model was examined. Namely, B16-BL6 cells were transplanted into the foot pads of C57BL/mice (each group having five animals). […] The transplanted cancer was removed on the 21st day and the mouse was anatomized 2 weeks later to examine the metastasis of the cancer into the lungs.

[8] = test system: adhesion of B16-BL6 melanoma cells to fibronectin; assay: Inhibition of B16-BL6 cell adhesion to fibronectin-coated substrate by peptides present during culture; type: cell-based, mouse; settings: for Adhesiveness adhered cell No./substrate (SD) / Percentage in parentheses (inhibition of adhesion to fibronectin): fibronectin coating
Description: First, microculture wells were preliminarily coated with 20 μg/ml of the polypeptide to be examined or 5 μg/ml of mouse fibronectin (obtained from Seikagaku Kogyo, Japan) which was used as a positive control. Next 0.05 ml/well of B16-BL6 melamona cells (2×10^4) labeled with a radioactive iodide [^125 I]IUdR was added thereto and the cells were cultured at 37° C. for 20 minutes. The number of cells thus adsorbed by the culture wells was determined by measuring the radioactivity. 1% bovine serum albumin (BSA) was employed as a negative control. The B16-BL6 melanoma cells were labeled by culturing the cells to be labeled at the logarithmic growth phase for 24 hours in an MEM medium containing 5% of FBS and 0.3 μCi/ml of [^125 I]IUdR (200 mCi/mmol; obtained from New England Nuclear, Boston, Mass., USA).
The labeled cells were washed with physiological saline solution twice and suspended in 0.02% EDTA for 1 minute. Subsequently the cells were collected and suspended in a serum-free MEM medium. The cell suspension thus obtained was used in the above examination. The unadsorbed cells in the well were washed away with PBS 4 times. Then the cells adsorbed by the well were dissolved in 0.1 ml of 0.1N NaOH. The number of adsorbed cells was determined by measuring the radioactivity of the dissolved cells.

[9] = test system: adhesion of B16-BL6 melanoma cells to fibronectin; assay: as above; type: cell-based, mouse
[10] = Test 1, simultaneous (mixed with 5×10^4 cells, i.v.), 500 μg, colonies counted after 14 days
[11] = 500 μg/mouse with labeled cells i.v.
[12] = 100 μg/animal, administration date 7
[13] = 100 μg/animal, administration date 14
[14] = 100 μg/animal, administration date 20
[15] = 50 × 4 μg/animal, administration dates 7, 10, 13, 16
[16] = incubated with 100 μg/ml peptide
[17] = incubated with 500 μg/ml peptide

Poly(Tyr-Ile-Gly-Ser-Arg)HCl (YIGSR; not fully specified; printed as Poly(Tyr-Ile-Gly-Ser-Arg)HCl; also: HCl salt)
No. of instances of metastasis to lung mean ± SD ([1]; 5 μg/animal): 81 ± 9 | No. of instances of metastasis to lung mean ± SD ([1]; 20 μg/animal): 43 ± 13 | No. of instances of metastasis to lung mean ± SD ([1]; 100 μg/animal): 19 ± 9 | No. of instances of metastasis to lung mean ± SD ([2]; 100 μg/animal): 14 ± 11 | Antimetastatic activity relative to the original pentapeptide ([2]; mouse, in vivo): ~10 times | Antimetastatic effect on metastasis to the lungs (in words) ([2]; polypeptide 2, 20 and 100 μg, pentapeptide 100 μg, mixed with cancer cells): remarkably inhibited | Cytotoxicity on erythrocytes, spleen and thymus cells [3]: neither any cytotoxicity

Poly(L-arginylglycyl-L-aspartate hydrochloride) [Poly(Arg-Gly-Asp)]
Antimetastatic effect on metastasis to lungs (in words) ([1]; Test 1): remarkably inhibited | Metastasis to lung mean ± SD [1, 10]: 23 ± 3 | Antimetastatic effect compared with the control group (in words) ([1]; Test 2): remarkable antimetastatic effect | Metastasis to lung mean ± SD ([1]; Test 2, separate (i.v. 5 minutes after the cells), 1000 μg): 16 ± 4 | Metastasis to lung mean ± SD ([1]; Test 2, simultaneous, 1000 μg): 6 ± 4 | Antimetastatic effect (in words) ([1]; not mixed, i.v. to mice given B16-BL6 cells 5 minutes before): high antimetastatic effect | Radioactivity in other organs including blood versus control (in words) ([4]; 500 μg/mouse): no significant difference | Radioactivity of the lungs versus control group (in words) ([4]; 500 μg/mouse): markedly lower | Radioactivity (cpm ± SD), Lung ([4]; 500 μg/mouse with 2×10^4 labeled cells i.v., average of 3 animals): 1121 ± 281 cpm | Radioactivity (cpm ± SD), Blood (1 ml) [4, 11]: 304 ± 94 cpm | Radioactivity (cpm ± SD), Kidney [4, 11]: 73 ± 19 cpm | Radioactivity (cpm ± SD), Liver [4, 11]: 195 ± 42 cpm | Radioactivity (cpm ± SD), Spleen [4, 11]: 59 ± 7 cpm | Percentage relative to the administered radioactivity, Lung ([4]; administered 15308 ± 1605 cpm/2 × 10^4 cells): 7.3% | Percentage relative to the administered radioactivity, Blood (1 ml) ([4]; mouse, in vivo): 2.0% | Percentage relative to the administered radioactivity, Kidney ([4]; mouse, in vivo): 0.5% | Percentage relative to the administered radioactivity, Liver ([4]; mouse, in vivo): 1.3% | Percentage relative to the administered radioactivity, Spleen ([4]; mouse, in vivo): 0.4% | No. of instances of metastasis to lung mean ± SD ([2]; 500 μg/animal): 34 ± 7 | Adsorption of B16-BL6 melanoma cells to coated wells (in words) [5]: accelerated the adsorption | Adhesiveness adhered cell No./substrate (SD) [5]: 7967 ± 910 adhered cell No./substrate | Suppression of platelet aggregation induced by B16-BL6 cells (in words) [6]: completely suppressed | Metastasis of the cancer to the lungs (in words) [7]: remarkably reduced | Number of metastatic cancer to lung (mm ± SD) ([7]; 100 μg/animal, administration date 1): 24 ± 17 mm | Size of transplanted cancer (mm ± SD), observation on 21st day ([7]; 100 μg/animal, administration date 1, topical): 8 ± 4 mm | Number of metastatic cancer to lung (mm ± SD) [7, 12]: 29 ± 22 mm | Size of transplanted cancer (mm ± SD), observation on 21st day [7, 12]: 9 ± 3 mm | Number of metastatic cancer to lung (mm ± SD) [7, 13]: 120 ± 29 mm | Size of transplanted cancer (mm ± SD), observation on 21st day [7, 13]: 10 ± 4 mm | Number of metastatic cancer to lung (mm ± SD) [7, 14]: 131 ± 79 mm | Size of transplanted cancer (mm ± SD), observation on 21st day [7, 14]: 8 ± 3 mm | Number of metastatic cancer to lung (mm ± SD) [7, 15]: 26 ± 29 mm | Size of transplanted cancer (mm ± SD), observation on 21st day [7, 15]: 8 ± 3 mm | Growth of the transplanted cancer per se (in words) ([7]; same regimens): could not be suppressed | Adhesiveness adhered cell No./substrate (SD) [8, 16]: 3687 ± 229 adhered cell No./substrate | Adhesiveness adhered cell No./substrate (SD) [8, 17]: 3715 ± 231 adhered cell No./substrate | Percentage in parentheses (inhibition of adhesion to fibronectin) [8, 17]: 36% | Inhibition of adhesion of fibronectin to cells (in words) ([9]; 100 or 500 μg/ml peptide (His-Gly-Gly 500 μg/ml)): inhibited | Percentage in parentheses (inhibition of adhesion to fibronectin) ([9]; fibronectin coating, incubated with 100 μg/ml peptide): 37%

O=C(O)CN(CCN(CC(=O)O)CC(=O)O)CC(=O)O [EDTA, reference compound]
Inhibition of cell-adhesiveness of fibronectin (in words) ([9]; 5 mM): inhibited

Poly(L-arginyl-glycyl-L-aspartic acid)hydrochloride [Poly(Arg-Gly-Asp)-1500]
Antimetastatic effect compared with the control group (in words) ([1]; Test 2): remarkable antimetastatic effect | Metastasis to lung mean ± SD ([1]; Test 2, simultaneous, 1000 μg): 14 ± 4

Fibronectin: mouse fibronectin (obtained from Seikagaku Kogyo, Japan) used as a positive control
Adsorption of B16-BL6 melanoma cells to coated wells (in words) [5]: accelerated the adsorption | Adhesiveness adhered cell No./substrate (SD) [5]: 5849 ± 513 adhered cell No./substrate

Cl.N=C(N)NCCC[C@H](N)C(=O)NCC(=O)N[C@@H](CC(=O)O)C(=O)O [Arg-Gly-Asp, L-arginylglycylaspartate hydrochloride, reference compound]
Amount needed relative to that of the polypeptide compound of the invention ([1]; Test 1): approximately 6 times | Antimetastatic effect on metastasis to lungs (in words) ([1]; Test 1): no such antimetastatic effect | Metastasis to lung mean ± SD [1, 10]: 46 ± 14 | Metastasis to lung mean ± SD ([1]; Test 1, simultaneous, 3000 μg, 14 days): 18 ± 24 | Amount needed to achieve an antimetastatic effect comparable to that of Poly(Arg-Gly-Asp) ([1]; Test 1, versus 500 μg Poly(Arg-Gly-Asp)): 3,000 μg | Inhibition of adhesion of fibronectin to cells (in words) ([8]; 100 or 500 μg/ml peptide (His-Gly-Gly 500 μg/ml), hydrochloride): dose-dependently inhibited | Adhesiveness adhered cell No./substrate (SD) [8, 16]: 5320 ± 52 adhered cell No./substrate | Adhesiveness adhered cell No./substrate (SD) [8, 17]: 3708 ± 265 adhered cell No./substrate | Percentage in parentheses (inhibition of adhesion to fibronectin) [8, 17]: 37%

Copoly(L-arginine hydrochloride, glycine, L-aspartic acid) [Poly(Arg, Gly, Asp), reference compound]
Antimetastatic effect on metastasis to lungs (in words) ([1]; Test 1): no such antimetastatic effect | Metastasis to lung mean ± SD [1, 10]: 65 ± 4 | Adsorption of B16-BL6 melanoma cells to coated wells (in words) [5]: scarcely any adsorption | Adhesiveness adhered cell No./substrate (SD) [5]: 1750 ± 395 adhered cell No./substrate | Suppression of platelet aggregation induced by B16-BL6 cells (in words) [6]: scarcely any suppression capability | Metastasis of the cancer to the lungs (in words) [7]: did not suppress | Number of metastatic cancer to lung (mm ± SD) [7, 12]: 158 ± 62 mm | Size of transplanted cancer (mm ± SD), observation on 21st day [7, 12]: 11 ± 3 mm
